Results on one compound are retold here after US12280114B2, “Extraction of plant source “medicinal soup” and manual preparation of “herbal medicine” and related products” (BEIJING BAISHIHEKANG PHARMACEUTICAL TECHNOLOGY (BSJPHARMA) …, priority 2018, dated 2025).

Molecules are shown by their SMILES.

For data set [1], the system named is fibronectin and α-SMA. Briefly: Fibronectin/α-SMA protein expression in TGF-β1-stimulated MRC-5 cells after small RNA delivered by lipid or bencaosome (Western blot). Conditions: Examples 5 and 8; nucleic acid 400 nM; TGF-β1 3 ng/mL, 72 hours. The data set is classed as cell-based, human. Background: A western blot detects proteins with antibodies after separation by electrophoresis.

Data set [2] deals with A549 cells. Description: RT-qPCR detection of nucleic acid delivered by lipid into A549 cells. The data set is classed as cell-based, human. Conditions: HJT-sRNA-m7 double-stranded RNA, reverse evaporation method. In general terms: In qPCR the cycle at which signal appears reflects the starting amount.
Data set [3] concerns A549 cells. Briefly: Confocal fluorescence microscopy of lipid-delivered nucleic acid in A549 cells. The format is cell-based, human. Conditions: boiling method; 6 hours. Here is the method: […] Then the mixture was dropped into A549 cells, and after 6 hours of co-incubation, the samples were washed three times with PBS, fixed with 4% paraformaldehyde, washed three times with PBS, stained with Alexa Fluor® 488 phalloidin for 30 min, washed 3 times with PBS, and stained with DAPI for 5 min, washed with PBS, and then sealed.
[…] Then, the mixture was dropped into A549 cells, and after 6 hours of co-incubation, the samples were washed three times with PBS, fixed with 4% paraformaldehyde, washed three times with PBS, stained with Alexa Fluor® 488 phalloidin for 30 min, washed 3 times with PBS, and stained with DAPI for 5 min, PBS washed, and then sealed.

Data set [4] concerns A549 cells. Description: Digital PCR (ddPCR) detection of nucleic acid delivery by lipid into A549 cells. The format is cell-based, human. Conditions: single lipid; boiling or reverse evaporation method. As to the method: Referring to the QX200 Droplet Reader and QuantaSoft Software manual for the protocols, the results were analyzed using QuantaSoft software.
2.2 Experimental method: total RNA was collected and extracted by TRIzol lysis buffer according to the above method, and reverse transcribed to cDNA using High capacity cRNA Reverse Transcription Kit, and the cDNA from different groups was subjected to digital PCR reaction.
2.2 Experimental method: Total RNA was collected and extracted by TRIzol lysis buffer according to the above method, and reverse transcribed to cDNA using TaqMan™ MicroRNA Reverse Transcription KitHigh, and the cDNA from different groups was subjected to digital PCR reaction.
2.2 Experimental method: Total RNA was collected and extracted by TRIzol lysis buffer according to the above method, and reversed to cDNA using High capacity CRNA Reverse Transcription Kit, and the cDNA from different groups was subjected to digital PCR reaction.

For data set [5], the system named is A549 cells. Description: Flow cytometry of green fluorescent protein delivered by lipid into A549 cells. The data set is classed as cell-based, human. The following applies: 10 μg/mL lipid; reverse evaporation method; 6 hours. Here is the method:
(§1) Experimental method: The bencaosome was prepared by reverse evaporation of ether. 0.2 nmol green fluorescent protein dissolved in 20 μl water was added to 100 μl ether solutions containing 0 μg, 1 μg, 3 μg lipid respectively. After fully mixing, sonication was conducted for 3 min. After evaporation at 60° C. to remove organic solvent, the bencaosome solution was obtained by hydrating with 100 μL opti-MEM. Then the bencaosome was added to A549 cells and co-incubated for 6 hours. The samples were collected and tested. After washing three times with PBS, the samples were digested with trypsin for three minutes. The trypsin was removed, and then the samples were washed with PBS and blown off. Accuri® C6 instrument was used to measure.
as §1, with “method.” for “of ether.”, “The trypsin was removed, and then the samples were washed with PBS and blown off. Accuri® C6 instrument was used to measure.” left out

Data set [6] deals with A549 cells. Description: Confocal fluorescence microscopy of green fluorescent protein delivered by lipid into A549 cells. The following applies: reverse evaporation method; 6 hours. The format is cell-based, human. Here is the method:
Experimental method: The bencaosome was prepared by reverse evaporation method. 0.2 nmol green fluorescent protein dissolved in 20 μl water was added to 100 μl ether solutions containing 0 μg, 0.25 μg, 0.75 μg lipid respectively. After fully mixing, sonication was conducted for 3 min. After evaporated at 60° C. to remove organic solvent, the bencaosome solution was obtained by hydrating with 100 μL opti-MEM. Then the bencaosome was added to A549 cells and co-incubated for 6 hours. The samples were collected and tested. After washing three times with PBS, the samples were fixed with 4% paraformaldehyde. After washing three times with PBS, the samples were stained with Alexa Fluor® 488 phalloidin for 30 min. After washing three times with PBS, the samples were stained with Dapi for 5 min, then washed with PBS and sealed for observation.

A short description of data set [7]: In vivo delivery of small RNA into mouse blood, stomach, small intestine and liver via gavage (RT-qPCR). The following applies: Example 11; 10 μL single lipid + sRNA 1 nmol each, heating method; 12 hours.
Experimental: [Experimental method] 6-8 weeks old mice, 22-24 g, were raised in SPF room of the Animal Center of the Institute of Basic Medical Sciences of Chinese Academy of Medical Sciences. The mice were fasted for 12 hours before intragastric administration. The mice were randomly divided into 3 groups: (1) control group, 400 μl DEPC-treated water, intragastric administration; (2) free uptake group, small RNA (PGY-sRNA-26, PGY-sRNA-32 and PGY-sRNA-23), each small RNA 1 nmol/animal, dissolved in 400 μl DEPC-treated water, intragastric administration; (3) lipid No. 41 group: a mixture of small RNA (PGY-sRNA-26 and PGY-sRNA-32) and lipid No. 41 prepared by heating method was intragastrically administered, each small RNA 1 nmol/animal, lipid No. 41 10 μl/animal, dissolved in 400 μl DEPC-treated water. All tissue and organ samples were collected after 6 hours of intragastric administration. All small RNAs were single-stranded RNA modified by 3p-terminal 2-O-methylation.
After 12 hours, the sample was collected to detect the amount of entry. In Vivo Delivery Experiment of Lipid Nucleic Acid Mixture • 1. […] LightCycler 480 fluorescence quantitative PCR instrument was used, and the PCR reaction conditions were: 95° C., 5 min for pre-denaturation, followed by the PCR amplification cycle: (1) 95° C., 10 s; (2) 55° C., 10 s; (3) 72° C., 20 s; a total of 40 cycles; 40° C. for 10 s in the end to cool down. […]

Consider `CCCCCCCC/C=C\CCCCCCCCCCCC(=O)O[C@H](COC(=O)CCCCCCCCCCCCCCC)COP(=O)(O)OCCN` [lipid No. 40, PE(16:0/22:1)], for which, in data set [1], the “inhibition by HJT small RNA at protein level in MRC-5 cells (Western blot)” value is reported as “mediated anti-fibrotic double-stranded RNA HJT-sRNA-m7 entry into MRC-5 cells to down-regulate fibronectin protein expression”. Moreover, the “delivery effect of lipid compared with RNAiMAX (RT-qPCR)” value in data set [2] is “½”. Moreover, in data set [3], the “entry of PGY-sRNA-6-Cy3 into A549 cells (confocal microscopy)” value is given as “could effectively deliver single-stranded RNA into A549 cells”. The “delivery of HJT-sRNA-m7 dsRNA into A549 cells (ddPCR)” value in data set [4] is recorded as “could effectively deliver HJT-sRNA-m7 dsRNA into A549 cells”. In data set [5], the “efficiency to deliver green fluorescent protein into A549 cells” value amounted to 7.2%. For the same compound, the “entry of green fluorescent protein into A549 cells (confocal microscope)” value in data set [6] is reported as “could effectively deliver protein into A549 cells”. For the same compound, in data set [7], the “delivery of sRNA single-stranded nucleic acid into mouse blood via oral administration” value is “the delivery effect was better than POPC and Lipofectamine RNAiMAX”.
